Test results reported in patent US20040059104A1, “Nucleotide mimics and their prodrugs” (priority 2002, published 2004).

Assays:
in vitro [1] = settings: human
Description: The stability of compounds in cell extracts was examined as follows:
Cell lysis buffer was added to cell pellets and the cells frozen and thawed 3× using dry ice. The lysis buffer (LB) was composed of the following: 50 mM Tris-HCl, pH 7.4 (100 μl/ml 10× stock), 20% glycerol (200 μl/ml), and 0.5% Triton X-100 (5 μl/ml). 100 μl of LB was added to each microfuge tube containing 10^7 frozen CEM cells. After the cells were lysed the extracts were centrifuged at high speed in a microcentrifuge for 5 minutes and the clarified cell extract transferred to a new tube. The cell stability reaction mixtures contained concentrations of buffer, magnesium, nucleotide, and cell extract as shown below:
The reaction mixtures were incubated at 37° C. At each time point, including at time zero, 12.5 μl aliquots were added to 40 μl ice-cold methanol. […] The samples were incubated in methanol for at least 60 minutes and typically overnight at −20° C. prior to further processing. The cell extracts were centrifuged at high speed in refrigerated microcentrifuge for 20 minutes and the supernatant transferred to a new tube. The extract was then dried under vacuum in a LabConco Centrivap Concentrator. The samples were then resuspended in 40 or 50 μl dH2O, filtered to remove any particulate, and analyzed by reverse phase HPLC.
The reverse phase HPLC columns used for the analysis were either a Phenomenex C18 Aqua column (2×100 mm) or the Phenomenex C18 Aqua column (3×150 mm) used with the appropriate guard column. The HPLC flow rate was either 0.2 ml/min (for the 2×100 mm column) or 0.5 ml/min (for the 3×150 mm column) with the following buffer system: 5 mM tetrabutylammonium acetate, 50 mM ammonium phosphate, and an acetonitrile gradient running from 5% up to as high as 60%. The amount of remaining parent compound at each time point was used to determine the half-life of the compound. […] Unmodified nucleoside triphosphates were used as positive controls.

HIV-1RF = experiment: Anti-HIV-1 cytoprotection assay in CEM-SS cells; format: cell-based; settings: CEM-SS cells infected with HIV-1RF, MOI approximately 0.01, 6 days, MTS; read-out: CEM-SS IC50 (Anti-HIV Screening)
Description: (§1) ollowing paper: Structure-Activity and Cross-Resistance unodeficiency Virus Type 1-Specific ckheit, Jr. et al., Antimicrobial Agents and s were evaluated in CEM-SS cell cultures V-1RF at an MOI of approximately 0.01. At he soluble tetrazolium-based dye MTS viability and quantify compound toxicity of metabolically active cells to yield a soluble analysis of cell viability and compound
Efficacy Evaluation in CEM-SS Cells Anti-HIV-1 Cytoprotection Assay
Cell Preparation—CEM-SS cells were passaged in T-75 flasks prior to use in the antiviral assay. On the day preceding the assay, the cells were split 1:2 to assure they were in an exponential growth phase at the time of infection. Total cell and viability quantification was performed using a hemacytometer and trypan blue exclusion. Cell viability was greater than 95% for the cells to be utilized in the assay. The cells were resuspended at 5×10^4 cells/ml in tissue culture medium and added to the drug-containing microtiter plates in a volume of 50 μl.
Virus Preparation—The virus used for these tests was the lymphocytropic virus strain HIV-1RF. This virus was obtained from the NIH AIDS Research and Reference Reagent Program and was grown in CEM-SS cells for the production of stock virus pools. For each assay, a pre-titered aliquot of virus was removed from the freezer (−80° C.) and allowed to thaw slowly to room temperature in a biological safety cabinet. The virus was resuspended and diluted into tissue culture medium such that the amount of virus added to each well in a volume of 50 μl was the amount determined to give between 85 to 95% cell killing at 6 days post-infection.
(§2) At assay termination, the assay plates were stained with the soluble tetrazolium-based dye MTS (CellTiter Reagent Promega) to determine cell viability and quantify compound toxicity. MTS is metabolized by the mitochondrial enzymes of metabolically active cells to yield a soluble formazan product, allowing the rapid quantitative analysis of cell viability and compound cytotoxicity. […] At termination of the assay, 20 μL of MTS reagent was added per well. The microtiter plates were then incubated 4-6 hrs at 37° C. for the HIV cytoprotection assay; the incubation intervals were chosen based on empirically determined times for optimal dye reduction. Adhesive plate sealers were used in place of the lids, the sealed plate was inverted several times to mix the soluble formazan product and the plate was read spectrophotometrically at 490 nm with a Molecular Devices Vmax plate reader.

CEM-SS cells = experiment: Compound toxicity in CEM-SS cells (MTS staining); format: cell-based; settings: read-out: CEM-SS TC50
Description: as §1, §2

Staphylococcus aureus = experiment: Antimicrobial assay, minimal inhibitory concentration; format: cell-based
Description: (§3) To examine the antimicrobial potential of the nucleotide mimics of the present invention an assay was employed that allowed the screening of a large number of compounds simultaneously. The type of bacteria chosen to screen the compounds are organisms associated with human disease and represent major groups of bacteria based on their structure and metabolism. Bacterial cultures of Escherichia coli and Staphylococcus aureus were incubated overnight at 37° C. in a shaker incubator. A lawn of each overnight bacterial culture was made by plating […] of bacteria on agar plates containing Nutrient Broth. Immediately after plating, sterile blank paper discs were put on top of the lawn and a compound was applied to each blank paper disc. Plates were then incubated overnight and examined for the inhibition of bacterial growth the following day. […] The plates were incubated overnight at 37° C. and then examined spectrophotometrically at 600 nm to determine the minimum concentration of each compound that inhibited replication of bacteria as determined by no increase in absorbance at 600 nm.

Escherichia coli = experiment: as above; format: cell-based
Description: as §3

in vitro [2] = settings: bovine, serum
Description: Typically the total volume used for the experiment was 500 μl. The final concentrations of the reaction components were as follows:
The reacton mixtures were made up and incubated at 37° C. At appropriate times aliquots of 25 μl were removed and added to 65 μl ice-cold methanol. These solutions were our at −20° C. and typically overnight. After incubation samples were inutes at high speed in a microcentrifuge. The supernatant was nd the extract was dried under vacuum in a LabConco Centrivap Concentrator. The dried extracts were resuspended in dH2O and filtered to remove particulate before analysis on reverse phase HPLC.
The reverse phase HPLC columns used for the analysis were either a Phenomenex C18 Aqua column (2×100 mm) or the Phenomenex C18 Aqua column (3×150 mm) used with the appropriate guard column. The HPLC was run at 0.2 ml/min (for the 2×100 mm column) or at 0.5 ml/min (for the 3×150 mm column) with the following buffer system: 5 mM tetrabutylammonium acetate, 50 mM ammonium phosphate, and an acetonitrile gradient running from 5% up to as high as 60%. The amount of remaining parent compound at each time point was used to determine the half-life of the compound. […] Unmodified nucleoside triphosphates were used as positive controls.

CEM cells = experiment: Cell uptake procedure (intracellular nucleotide levels by HPLC); format: cell-based, Human; settings: 24 hour incubation, limit of detection about 5 pmol/10^6 cells
Description: CEM cells were resuspended in RPMI at 1×10^7 cells/mL. The appropriate amount of each compound was added to well and then 0.5 ml of the cells was aliquoted into the appropriate number of wells of a 24-well plate and incubated the cells at 37° C. Cells were harvested after 24 hours of incubation. To harvest cells they were transferred to a microfuge tube and spun for one minute at high speed. The samples were washed in PBS containing 1 mg/ml BSA and re-centrifuged. The PBS was then aspirated and 200 μL of ice-cold 60% methanol was added to extract the nucleotides. The extracts were incubated overnight at −20° C. The next day the samples were spun at high speed in a microfuge for 20 minutes and the supernatant transferred to clean tubes and dried in the speed vac. After drying the samples were resuspended in 50 μl, filtered, and the samples then directly injected onto the HPLC. The nucleotides were analyzed using reverse phase HPLC with ion-pairing agents for separation of the nucleotides. The procedure was adapted from the following paper: Furman, et al., Proc. Natl. Acad. Sci. USA 1986, 83, 8333-8337.
The limit of detection was estimated to be 5 pmol/10^6 cells.

[3] = target: purified bovine brain tubulin; experiment: Assay for inhibition of microtubule (tubulin) polymerization; format: biochemical; settings: 50 μM GTP, 37° C.; read-out: Ki, Inhibition of Tubulin Polymerization by Nucleotide Mimics
Description: The assays employed to measure the polymerization and stability of tubulin microtubule protein are described below. The effectiveness of the compounds of the present invention as modulators of tubulin microtubule protein dynamics was measured in the following assays.
This assay was used to measure the ability of the nucleotide mimics of the present invention to inhibit the polymerization of tubulin subunits and subsequent assembly of microtubule protein. This assay is a modification of a published procedure (Xu et al., “Interaction of Tubulin with Guanosine 5′-O-(1-Thiotriphosphate) Diastereoisomers: Specificity of the α-Phosphate Binding Region”, Biochemistry 1994, 33, 11884-90).
The compounds were tested at various concentrations up to 500 μM final concentration. Polymerization assays were performed in 96-well microplates (Costar), in assay buffer containing GTP and tubulin. The nucleotide mimics of the present invention were diluted in buffer and pipetted into the plate wells. Samples were kept on ice until the reactions were initiated by moving the plates into a 37° C. incubator. The polymerization reaction was allowed to proceed at 37° C. for 30 minutes, monitored at 340 nm using a microplate spectrophotometer with a temperature-controlled incubator (Molecular Devices, Sunnyvale, Calif.). Initial velocity data (mA min^−1) was collected and fit to the equations below.
The percentage of inhibition was calculated according to the following equation:
% Inhibition=[1−(mA min^−1 in test reaction−mA min^−1 in blank)/(mA min^−1 in control reaction−mA min^−1 in blank)]×100.
Each inhibitor was titrated over an appropriate range of concentrations, and inhibition constants were determined using the following equations:
v=Vm[S]/(Km(1+[I]/Ki)+[S])

[4] = target: HIV reverse transcriptase (RT) (Human immunodeficiency virus type 1 group M subtype B, UniProt P04585); settings: assays using homopolymer templates; background statement; cited from earlier work
[5] = overnight at 37° C., tested 0-200 μg/ml, NA = Not active
[6] = value in brackets beside the μg/ml value
[7] = incubation concentration 100 μM

Molecule | Half-Life, Cell Extract Half-Lives of AZT 5'-α-P-borano-β,γ-(difluoromethylene) triphosphate Prodrugs (in vitro [1]) [h] | IC50 (HIV-1RF) [µM] | CC50 (CEM-SS cells) [µM] | E. coli MIC (Escherichia coli; [5]) [µg/mL] | E. coli MIC (Escherichia coli; [6]) | Ki [3] [µM] | also measured
3′-Azido-3′-deoxythymidine 5′-α-P-borano-β,γ-difluoromethylene-γ-O-palmityltriphosphate [Compound 41] | >48 | 1.41 | 12 | 25 to 50 | (33-66) uM | – | S. aureus MIC (Staphylococcus aureus; [5]): 5 to 10 µg/mL; S. aureus MIC (Staphylococcus aureus; [6]): (6.5-13) μM
3′-Azido-3′-deoxythymidine 5′-α-P-borano-γ-O-(S-pivaloyl-2-thioethyl)-β,γ-(difluoromethylene)triphosphate [Compound 70] | 15 | 0.95 | > 200 | 6 | (8.8) uM | – | Half-Life, Serum Half-Lives of AZT Triphosphate Mimic Prodrugs (in vitro [2]): >48 h; Intracellular levels of 27 (CEM cells; incubation concentration 25 μM): 10.5 pmol/10^6 cells; Intracellular levels of 27 (CEM cells; incubation concentration 50 μM): 15.6 pmol/10^6 cells; Intracellular levels of 27 (CEM cells; [7]): 19.7 pmol/10^6 cells
Nc1ccn([C@@H]2O[C@H](COP(=O)(O)OP(=O)(O)O)[C@@H](O)C2=CF)c(=O)n1 [2′-Deoxy-2′-fluoromethylenecytidine 5′-diphosphate] | – | – | – | – | – | 19.4 | –
BP(=O)(OC[C@@H]1O[C@H](n2cc(C)c(=O)[nH]c2=O)C[C@H]1N=[N+]=[N-])OP(=O)(O)OP(=O)(O)O (stereo partly drawn) [AZT 5′-α-P-boranotriphosphate] | – | – | – | – | – | – | Ki values, inhibition of HIV reverse transcriptase (RT) [4]: low nM range
BP(=O)(OC[C@H]1O[C@@H](n2cc(C)c(=O)[nH]c2=O)C[C@H]1N=[N+]=[N-])OP(=O)(O)C(F)(F)P(=O)(O)OCOC(=O)C(C)(C)C (stereo partly drawn) [Compound 69, 3′-Azido-3′-deoxythymidine 5′-α-P-borano-γ-O-(pivaloyloxymethyl)-β,γ-(difluoromethylene)triphosphate] | 8 | 1.13 | 45.9 | 0.75 | (1) uM | – | Half-Life, Serum Half-Lives of AZT Triphosphate Mimic Prodrugs (in vitro [2]): >48 h; Intracellular levels of 27 (CEM cells; incubation concentration 25 μM): 33.1 pmol/10^6 cells; Intracellular levels of 27 (CEM cells; incubation concentration 50 μM): 51.1 pmol/10^6 cells; Intracellular levels of 27 (CEM cells; [7]): 70.8 pmol/10^6 cells
Nc1ccn([C@@H]2O[C@H](COP(=O)(O)CCP(=O)(O)O)[C@@H](O)C2(F)F)c(=O)n1 [Compound 81, 2′-Deoxy-2′,2′-difluorocytidine 5′-ethylenediphosphonate] | – | – | – | – | – | 15.7 | –
Nc1nc2c(ncn2[C@@H]2O[C@H](COP(=O)(O)OP(=O)(O)O)[C@@H](O)[C@H]2O)c(=O)[nH]1 [Guanosine 5′-diphosphate] | – | – | – | – | – | 15.3 | –
Nc1nc2c(ncn2[C@@H]2O[C@H](COP(=O)(O)NP(=O)(O)O)[C@@H](O)[C@H]2O)c(=O)[nH]1 [Guanosine 5′-imidodiphosphate] | – | – | – | – | – | 5.7 | –
D4T 5′-α-P-boranotriphosphate | – | – | – | – | – | – | Ki values, inhibition of HIV reverse transcriptase (RT) [4]: low nM range
